According to patent US20240383882A1 (Ecstasy LLC, priority 2020, published 2024):
Where a name gives a salt, the structure may show the parent alone. Read-outs that look alike come from different tables or passages of the source.

Tested on: male C57BL/6 mice
Assay: 55° C. warm-water tail-flick test (antinociception)
Format: in vivo
Details: for ED50: Mus musculus
Procedure, shortened: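 Subcutaneous dosing, then tail immersion in 55° C water at 30–120 min; latency normalized as 100×(test−control)/(20−control), using a 20 s cutoff, after excluding mice not responding within 2 s at baseline. Values expressed as ED50 (mg/kg).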

[1] = half maximal effective dose in mice, using one of: warm water tail-flick test, spared nerve injury, chronic constriction injury, or Complete Freund's adjuvant induced inflammatory pain (not stated which per compound), read-out: Biological Activity (ED50)
[2] = sc, 0.5 h, compounds of Table I, s.c., 30 min, 55° C. water, configuration tested as in Table II, read-out: ED50 (mg/kg) at 30 min on C57BL/6 mice in Warm-water Tail-flick Test

Structure (SMILES) | ED50 [1] [mg/kg] | also measured
CCOC(=O)[C@]1(CCc2ccc(C#N)cc2)CCN(C(C)(C)c2ccccn2)C1 [Compound 139, ethyl (R)-3-(4-cyanophenethyl)-1-(2-(pyridin-2-yl)propan-2-yl)pyrrolidine-3-carboxylate] | > 50 | –
COC(C(F)(F)F)(C(F)(F)F)[C@]1(COCc2ccccc2)CCN(C2(c3ncon3)COC2)C1 [Compound 24] | > 50 | –
Cc1ccc(C(C)(C)N2CC[C@@](CCc3ccc(C#N)cc3)(C(O)(C(F)(F)F)C(F)(F)F)C2)cn1 [Compound 165, (R)-4-(2-(3-(1,1,1,3,3,3-hexafluoro-2-hydroxypropan-2-yl)-1-(2-(6-methylpyridin-3-yl)propan-2-yl)pyrrolidin-3-yl)ethyl) benzonitrile] | ≤ 30 | –
CCOC(C(F)(F)F)(C(F)(F)F)[C@]1(/C=C/c2cnc3ccccc3n2)CCN(C(C)(C)c2ccc(C)nc2)C1 [Compound 187, (S,E)-2-(2-(3-(2-ethoxy-1,1,1,3,3,3-hexafluoropropan-2-yl)-1-(2-(6-methylpyridin-3-yl)propan-2-yl)pyrrolidin-3-yl)vinyl)quinoxaline] | > 50 | –
CC(C)(c1ccccn1)N1CC[C@](CCc2ccc(C#N)cc2)([C@@H]2CCCO2)C1 [Compound 41, 4-(2-((S)-1-(2-(pyridin-2-yl)propan-2-yl)-3-((S)-tetrahydrofuran-2-yl)pyrrolidin-3-yl)ethyl) benzonitrile] | > 50 | ED50 [2]: ≤ 30 mg/kg
Cc1ccc(C(C)(C)N2CC[C@@](CCc3ccc(C#N)cc3)(C(=O)C(F)(F)F)C2)cn1 [Compound 166, (R)-4-(2-(1-(2-(6-methylpyridin-3-yl)propan-2-yl)-3-(2,2,2-trifluoroacetyl)pyrrolidin-3-yl)ethyl) benzonitrile] | ≤ 30 | –
CC(C)(c1ccc(F)cn1)N1CC[C@@](CO)(CCc2ccc(C#N)cc2)C1 [Compound 226, (S)-4-(2-(1-(2-(5-fluoropyridin-2-yl)propan-2-yl)-3-(hydroxymethyl)pyrrolidin-3-yl)ethyl) benzonitrile] | > 50 | –
CC(C)(c1ccccn1)N1CC[C@@](CCc2ccc(C#N)cc2)(c2nn[nH]n2)C1 [Compound 182, (R)-4-(2-(1-(2-(pyridin-2-yl)propan-2-yl)-3-(2H-tetrazol-5-yl)pyrrolidin-3-yl)ethyl) benzonitrile] | > 50 | –
Cc1ccc(C(C)(C)N2CCC(CCc3ccc(F)s3)(c3nccn3C)C2)cn1 (single isomer, unassigned) [Compound 114] | – | ED50 [2]: ≤ 30 mg/kg
CC(C)(c1ccccn1)N1CC[C@](CO)(CCc2ccc3nonc3c2)C1 [Compound 167, (R)-(3-(2-(benzo[c][1,2,5]oxadiazol-5-yl)ethyl)-1-(2-(pyridin-2-yl)propan-2-yl)pyrrolidin-3-yl)methanol] | ≤ 30 | –
CC(C)(c1ccccn1)N1CC[C@](CO)(CCc2ccc(C(F)(F)F)o2)C1 [Compound 189, (R)-(1-(2-(pyridin-2-yl)propan-2-yl)-3-(2-(5-(trifluoromethyl)furan-2-yl)ethyl)pyrrolidin-3-yl)methano] | > 50 | –
CC(O)[C@@]1(CCc2ccc(C#N)cc2)CCN(C(c2ccc(F)cc2)c2cccnc2)C1 (single isomer, unassigned) [Compound 58] | > 50 | –
CCOCC1(CCn2c(=O)[nH]c3cnccc32)CCN(C(C)(C)c2ccc(C)nc2)C1 (stereo not drawn) [Compound 92, 1-(2-(3-(ethoxymethyl)-1-(2-(6-methylpyridin-3-yl)propan-2-yl)pyrrolidin-3-yl)ethyl)-1,3-dihydro-2H-imidazo[4,5-c]pyridin-2-one citrate] | – | ED50 [2]: ≤ 30 mg/kg
CCOC[C@]1(CCc2ccccc2)CCN(C(C)(C)c2ccc(Br)cc2)C1 [Compound 5] | – | ED50 (sc, 0.5 h, compounds of Table III, s.c., 30 min, 55° C. water, configuration tested as in Table IV, read-out: ED50 (mg/kg) at 30 min on C57BL/6 mice in Warm-water Tail-flick Test (same as Table II)): ≤ 30 mg/kg
CC(C)(c1ccccn1)N1CC[C@@](CCc2ccc(F)c(F)c2)(C(O)C(F)(F)F)C1 (single isomer, unassigned) [Compound 151, (R or S)-1-((R)-3-(3,4-difluorophenethyl)-1-(2-(pyridin-2-yl)propan-2-yl)pyrrolidin-3-yl)-2,2,2-trifluoroethan-1-ol] | – | Biological Activity (ED50) (half maximal effective dose in mice, using one of: warm water tail-flick test, spared nerve injury, chronic constriction injury, or Complete Freund's adjuvant induced inflammatory pain (not stated which per compound)): + (+ indicates ED 50>50 mg/kg)
CC(C)(c1ccccn1)N1CC[C@](CO)(CCc2ccc(C#N)cn2)C1 [Compound 114, (R)-6-(2-(3-(hydroxymethyl)-1-(2-(pyridin-2-yl)propan-2-yl)pyrrolidin-3-yl)ethyl) nicotinonitrile] | > 50 | –

Structure (SMILES) | ED50 [1] [mg/kg] | also measured
Cc1ccc(C(C)(C)N2CC[C@@](CCc3ccc(C#N)cc3)(CS(C)(=O)=O)C2)cn1 [Compound 19, (R)-4-(2-(1-(2-(6-methylpyridin-3-yl)propan-2-yl)-3-((methylsulfonyl)methyl)pyrrolidin-3-yl)ethyl)benzonitrile] | ≤ 30 | –
CC(C)(c1ccccc1)N1CC[C@](CCc2ccc(S(C)(=O)=O)cc2)(C(O)C(F)(F)F)C1 (single isomer, unassigned) [Compound 213, (R or S)-2,2,2-trifluoro-1-((S)-3-(4-(methylsulfonyl)phenethyl)-1-(2-phenylpropan-2-yl)pyrrolidin-3-yl)ethan-1-ol] | ≤ 30 | –
CC(C)(c1ccccn1)N1CC[C@@](CCc2ccc(C#N)cc2)(C(=O)NC2(C(F)(F)F)CC2)C1 [Compound 201, (R)-3-(4-cyanophenethyl)-1-(2-(pyridin-2-yl)propan-2-yl)-N-(1-(trifluoromethyl)cyclopropyl) pyrrolidine-3-carboxamide] | ≤ 30 | –
CC(C)(c1ccccn1)N1CC[C@@](CCc2ccc(C#N)cc2)(C(=O)C(F)(F)F)C1 [Compound 100, (R)-4-(2-(1-(2-(pyridin-2-yl)propan-2-yl)-3-(2,2,2-trifluoroacetyl)pyrrolidin-3-yl)ethyl) benzonitrile] | > 50 | –
N#Cc1ccc(CC[C@@]2(C3OCC3(F)F)CCN(Cc3ccccn3)C2)cc1 (single isomer, unassigned) [Compound 196, 4-(2-((R)-3-((R or S)-3,3-difluorooxetan-2-yl)-1-(pyridin-2-ylmethyl)pyrrolidin-3-yl)ethyl) benzonitrile] | ≤ 30 | –
CC(C)(c1ccccn1)N1CC[C@](C#N)(CCc2ccc3nonc3c2)C1 [Compound 178, (R)-3-(2-(benzo[c][1,2,5]oxadiazol-5-yl)ethyl)-1-(2-(pyridin-2-yl)propan-2-yl)pyrrolidine-3-carbonitrile] | > 50 | –
CCOC(C(F)(F)F)[C@]1(CCc2ccc(C#N)s2)CCN(C(C)(C)c2ccccn2)C1 (single isomer, unassigned) [Compound 156, 5-(2-((R)-3-((R or S)-1-ethoxy-2,2,2-trifluoroethyl)-1-(2-(pyridin-2-yl)propan-2-yl)pyrrolidin-3-yl)ethyl)thiophene-2-carbonitrile] | ≤ 30 | –
CC(C)(c1ccccn1)N1CC[C@@](CCc2ccc3nonc3c2)(c2nn[nH]n2)C1 [Compound 181, (R)-5-(2-(1-(2-(pyridin-2-yl)propan-2-yl)-3-(2H-tetrazol-5-yl)pyrrolidin-3-yl)ethyl) benzo[c] [1,2,5]oxadiazole] | > 50 | –
CC(C)(c1ccccn1)N1CC[C@@](CCc2ccccc2C#N)(C(O)C(F)(F)F)C1 (single isomer, unassigned) [Compound 135, 2-(2-((R)-1-(2-(pyridin-2-yl)propan-2-yl)-3-((R or S)-2,2,2-trifluoro-1-hydroxyethyl)pyrrolidin-3-yl)ethyl) benzonitrile] | > 50 | –
Cc1ccc(C(C)(C)N2CCC(CCc3ccc(F)s3)(C3OCCc4ccccc43)C2)cn1 (single isomer, unassigned) [Compound 94, 5-(2-((R or S)-3-(2-(5-fluorothiophen-2-yl)ethyl)-3-((R or S)-isochroman-1-yl)pyrrolidin-1-yl)propan-2-yl)-2-methylpyridine citrate] | – | ED50 [2]: ≤ 30 mg/kg
Fc1ccc(CC[C@@]2(C3CCO3)CCN(Cc3cccnc3)C2)cc1 (single isomer, unassigned) [Compound 12, 3-(((R)-3-(4-fluorophenethyl)-3-((R or S)-oxetan-2-yl)pyrrolidin-1-yl)methyl)pyridine] | ≤ 30 | –
CC(C)(c1ccccn1)N1CC[C@@](CCc2ccc3nonc3c2)(C(O)C(F)(F)F)C1 (single isomer, unassigned) [Compound 176, (R or S)-1-((R)-3-(2-(benzo[c][1,2,5]oxadiazol-5-yl)ethyl)-1-(2-(pyridin-2-yl)propan-2-yl)pyrrolidin-3-yl)-2,2,2-trifluoroethan-1-ol] | > 50 | –
CC(C)(c1ccccn1)N1CC[C@](CO)(CCc2ccc(C#N)cc2F)C1 [Compound 111, (R)-3-fluoro-4-(2-(3-(hydroxymethyl)-1-(2-(pyridin-2-yl)propan-2-yl)pyrrolidin-3-yl)ethyl) benzonitrile] | > 50 | –
CC(C)(c1ccc(S(C)(=O)=O)cc1)N1CC[C@@](CCc2ccc(F)cc2)(C(O)C(F)(F)F)C1 (single isomer, unassigned) [Compound 50] | > 50 | –
CCOC(c1ccccc1)C1(CCc2ccc(F)s2)CCN(C(C)(C)c2ccc(C)nc2)C1 (single isomer, unassigned) [Compound 97, 5-(2-((R or S)-3-((R or S)-ethoxy(phenyl)methyl)-3-(2-(5-fluorothiophen-2-yl)ethyl)pyrrolidin-1-yl)propan-2-yl)-2-methylpyridine citrate] | – | ED50 [2]: ≤ 30 mg/kg
Cc1ccc(C(C)(C)N2CCC(CCc3cccs3)(C3OCCc4ccccc43)C2)cn1 (single isomer, unassigned) [Compound 87, 5-(2-((R or S)-3-((S or R)-isochroman-1-yl)-3-(2-(thiophen-2-yl)ethyl)pyrrolidin-1-yl)propan-2-yl)-2-methylpyridine citrate] | – | ED50 [2]: ≤ 30 mg/kg
